# Test results published in ChEMBL document CHEMBL1149256, “Discovery of 4-aryl-4H-chromenes as a new series of apoptosis inducers using a cell- and caspase-based high-throughput screening assay. 1. Structure-activity relationships of the 4-aryl group” (J Med Chem, 2004).
# The source made the active and inactive calls. No cut-off for these calls is given here.
# Tests used:
# T47D [1] = assay: Induction of apoptosis in human T47D cells assessed as caspase activation after 24 hrs; assay type: functional, cell-based
# NCI-H1299 = assay: Induction of apoptosis in human H1299 cells assessed as caspase activation after 24 hrs; assay type: functional, cell-based; settings: NCI-H1299, 24 h
# DLD-1 [2] = assay: Induction of apoptosis in human DLD1 cells assessed as caspase activation after 24 hrs; assay type: functional, cell-based; settings: DLD-1, 24 h
# Jurkat [3] = assay: Induction of caspase-mediated apoptosis in Jurkat cells at 0.1 uM after 24 hrs by nuclear fragmentation assay; assay type: functional, cell-based; settings: Homo sapiens
# Jurkat [4] = assay: Induction of apoptosis in Jurkat cells assessed as PARP cleavage at 2.5 uM; assay type: functional, cell-based; settings: Homo sapiens, TDE = time-dependent effect
# T47D [5] = assay: Induction of apoptosis in human T47D cells assessed as accumulation at subG1 phase at 0.1 uM after 24 hrs; assay type: functional
# T47D [6] = assay: Induction of apoptosis in human T47D cells assessed as accumulation at G1 phase at 0.1 uM after 24 hrs; assay type: functional
# T47D [7] = assay: Induction of apoptosis in human T47D cells assessed as accumulation at S phase at 0.1 uM after 24 hrs; assay type: functional
# T47D [8] = assay: Induction of apoptosis in human T47D cells assessed as accumulation at G2/M phase at 0.1 uM after 24 hrs; assay type: functional
# T47D [9] = assay: Induction of apoptosis in human T47D cells assessed as accumulation at subG1 phase at 0.1 uM after 48 hrs; assay type: functional
# T47D [10] = assay: Induction of apoptosis in human T47D cells assessed as accumulation at G1 phase at 0.1 uM after 48 hrs; assay type: functional
# T47D [11] = assay: Induction of apoptosis in human T47D cells assessed as accumulation at S phase at 0.1 uM after 48 hrs; assay type: functional
# T47D [12] = assay: Induction of apoptosis in human T47D cells assessed as accumulation at G2/M phase at 0.1 uM after 48 hrs; assay type: functional
# Tubulin [13] = assay: Inhibition of tubulin polymerization; assay type: protein-complex assay, Homo sapiens
# Tubulin [14] = assay: Displacement of [3H]colchicine from tubulin; assay type: protein-complex assay, Homo sapiens
# T47D [15] = assay: Antiproliferative activity against human T47D cells after 48 hrs by MTT assay; assay type: functional
# DLD-1 [16] = assay: Antiproliferative activity against human DLD1 cells after 48 hrs by MTT assay; assay type: functional; settings: DLD-1, 48 h
# T47D [17] = assay: Ratio of GI50 for human T47D cells to EC50 for human T47D cells; assay type: functional
# DLD-1 [18] = assay: Ratio of GI50 for human DLD1 cells to EC50 for human DLD1 cells; assay type: functional
# Jurkat [19] = assay: Induction of apoptosis in Jurkat cells assessed as PARP cleavage at 1 uM after 30 hrs; assay type: functional, cell-based; settings: Homo sapiens
SMILES,EC50 (T47D [1]),EC50 (NCI-H1299),EC50 (DLD-1 [2]),further results
COc1cc(OC)c(C2C(C#N)=C(N)Oc3cc(N(C)C)ccc32)cc1OC (centres undefined),1770 nM,2290 nM,3240 nM,–
CN(C)c1ccc2c(c1)OC(N)=C(C#N)C2c1cccc(C(=O)O)c1 (centres undefined),> 10000 nM,> 10000 nM,> 10000 nM,–
COc1ccc(C2C(C#N)=C(N)Oc3cc(N(C)C)ccc32)cc1OC (centres undefined),253 nM,510 nM,347 nM,–
COc1ccc(C2C(C#N)=C(N)Oc3cc(N(C)C)ccc32)cc1 (centres undefined),1600 nM,2000 nM,2600 nM,–
COc1cccc(C2C(C#N)=C(N)Oc3cc(N(C)C)ccc32)c1OC (centres undefined),1020 nM,2130 nM,1270 nM,–
CN(C)c1ccc2c(c1)OC(N)=C(C#N)C2c1ccncc1 (centres undefined),381 nM,855 nM,780 nM,–
CC(=O)O[C@H]1C(=O)[C@@]2(C)[C@H]([C@H](OC(=O)c3ccccc3)[C@]3(O)C[C@H](OC(=O)[C@H](O)[C@@H](NC(=O)c4ccccc4)c4ccccc4)C(C)=C1C3(C)C)[C@]1(OC(C)=O)CO[C@@H]1C[C@@H]2O [PACLITAXEL],30 nM,163 nM,75 nM,–
CCCCCCCCCCCCOc1cccc(C2C(C#N)=C(N)Oc3cc(N(C)C)ccc32)c1 (centres undefined),> 10000 nM,> 10000 nM,> 10000 nM,–
COc1ccc(C2C(C#N)=C(N)Oc3cc(N(C)C)ccc32)c(OC)c1OC (centres undefined),3160 nM,3740 nM,5090 nM,–
CN(C)c1ccc2c(c1)OC(N)=C(C#N)C2c1cccc(F)c1 (centres undefined),81 nM,304 nM,129 nM,–
COc1cc(C2C(C#N)=C(N)Oc3cc(N(C)C)ccc32)cc2c1OCO2 (centres undefined),–,–,83 nM,Activity (Jurkat [3]): Active; Activity (Jurkat [4]): tde; Activity (T47D [5]): 4.3%; Activity (T47D [6]): 43.5%; Activity (T47D [7]): 7.6%; Activity (T47D [8]): 44%; Activity (T47D [9]): 12%; Activity (T47D [10]): 11%; Activity (T47D [11]): 18.8%; Activity (T47D [12]): 57%; IC50 (Tubulin [13]): 400 nM
COc1ccccc1C1C(C#N)=C(N)Oc2cc(N(C)C)ccc21 (centres undefined),280 nM,560 nM,330 nM,–
CN(C)c1ccc2c(c1)OC(N)=C(C#N)C2c1ccccn1 (centres undefined),465 nM,1430 nM,959 nM,–
CN(C)c1ccc2c(c1)OC(N)=C(C#N)C2c1cc(Cl)cc(Cl)c1 (centres undefined),76 nM,233 nM,242 nM,–
COc1cc(C2C(C#N)=C(N)Oc3cc(N(C)C)ccc32)cc(Br)c1O (centres undefined),41 nM,144 nM,64 nM,–
COc1cc2c(c(OC)c1OC)-c1ccc(OC)c(=O)cc1[C@@H](NC(C)=O)CC2 [COLCHICINE],–,34 nM,–,–
CN(C)c1ccc2c(c1)OC(N)=C(C#N)C2c1cncc(Br)c1 (centres undefined),33 nM,46 nM,26 nM,–
CN(C)c1ccc2c(c1)OC(N)=C(C#N)C2c1cnc2ccccc2c1 (centres undefined),1820 nM,2230 nM,2740 nM,–
COc1cc(Br)cc(C2C(C#N)=C(N)Oc3cc(N(C)C)ccc32)c1 (centres undefined),31 nM,63 nM,125 nM,–
COc1cc(C2C(C#N)=C(N)Oc3cc(N(C)C)ccc32)cc(I)c1OC (centres undefined),18 nM,34 nM,64 nM,–

SMILES,EC50 (T47D [1]),EC50 (NCI-H1299),EC50 (DLD-1 [2]),further results
CN(C)c1ccc2c(c1)OC(N)=C(C#N)C2c1cccc(Cl)c1 (centres undefined),112 nM,514 nM,158 nM,–
Cc1cccc(C2C(C#N)=C(N)Oc3cc(N(C)C)ccc32)c1 (centres undefined),134 nM,420 nM,168 nM,–
CN(C)c1ccc2c(c1)OC(N)=C(C#N)C2c1cccc(C#N)c1 (centres undefined),63 nM,215 nM,82 nM,–
COc1cc(C2C(C#N)=C(N)Oc3cc(N(C)C)ccc32)cc(Cl)c1OC (centres undefined),18 nM,36 nM,65 nM,–
COc1cccc(C2C(C#N)=C(N)Oc3cc(N(C)C)ccc32)c1 (centres undefined),65 nM,200 nM,81 nM,–
CN(C)c1ccc2c(c1)OC(N)=C(C#N)C2c1cccs1 (centres undefined),200 nM,300 nM,270 nM,–
COc1cc(C2C(C#N)=C(N)Oc3cc(N(C)C)ccc32)cc(Br)c1OC (centres undefined),–,–,–,IC50 (Tubulin [14]): 8 µM
Cc1cncc(C2C(C#N)=C(N)Oc3cc(N(C)C)ccc32)c1 (centres undefined),11 nM,27 nM,18 nM,–
CN(C)c1ccc2c(c1)OC(N)=C(C#N)C2CCc1ccccc1 (centres undefined),430 nM,1080 nM,590 nM,–
CN(C)c1ccc2c(c1)OC(N)=C(C#N)C2c1cccc(Br)c1 (centres undefined),64 nM,337 nM,87 nM,–
CN(C)c1ccc2c(c1)OC(N)=C(C#N)C2c1cccnc1 (centres undefined),68 nM,155 nM,123 nM,–
CN(C)c1ccc2c(c1)OC(N)=C(C#N)C2c1cccc(OC(F)(F)F)c1 (centres undefined),450 nM,1140 nM,457 nM,–
CN(C)c1ccc2c(c1)OC(N)=C(C#N)C2c1cc(Br)c2c(c1)OCO2 (centres undefined),245 nM,754 nM,293 nM,GI50 (T47D [15]): 605 nM; GI50 (DLD-1 [16]): 735 nM; Ratio GI50/EC50 (T47D [17]): 2.5; Ratio GI50/EC50 (DLD-1 [18]): 2.5
CC[C@]1(O)C[C@@H]2CN(CCc3c([nH]c4ccccc34)[C@@](C(=O)OC)(c3cc4c(cc3OC)N(C)[C@H]3[C@@](O)(C(=O)OC)[C@H](OC(C)=O)[C@]5(CC)C=CCN6CC[C@]43[C@@H]65)C2)C1 [VINBLASTINE],25 nM,73 nM,129 nM,–
COc1cc(C2(C)C(C#N)=C(N)Oc3cc(N(C)C)ccc32)cc(Br)c1OC (centres undefined),7300 nM,7800 nM,10400 nM,–
CN(C)c1ccc2c(c1)OC(N)=C(C#N)C2c1cc(Br)cs1 (centres undefined),150 nM,240 nM,160 nM,–
CN[C@@H]1C[C@H]2O[C@@](C)([C@@H]1OC)n1c3ccccc3c3c4c(c5c6ccccc6n2c5c31)C(=O)NC4,–,–,–,Activity (Jurkat [19]): Active
Cc1cccc(C2C(C#N)=C(N)Oc3cc(N(C)C)ccc32)n1 (centres undefined),244 nM,622 nM,438 nM,–
CN(C)c1ccc2c(c1)OC(N)=C(C#N)C2c1cccc(O)c1 (centres undefined),272 nM,959 nM,532 nM,–
